The source of these data is patent US9090645B2, “Therapeutic compositions and methods of treatment with capsianoside-type compounds” (BMB Patent Holding Corporation, priority 2006, dated 2015).

Assay [1] deals with capsaicin-treated hindpaw. Briefly: Analgesic Bioassay: rat hindpaw withdrawal latency assay. The note with it: for Avg. Cmpd. @ 5 min (hindpaw withdrawal latency): 5 min after compound on capsaicin-treated hindpaw; for Avg. Cmpd. @ 5 min (hindpaw withdrawal latency) / Avg. Cmpd. @ 20 min (hindpaw withdrawal latency) / Avg. Cmpd @ 30 min (hindpaw withdrawal latency): 498: 0.27 mg, 660: 0.33 mg; for Avg. Cmpd. @ 5 min (hindpaw withdrawal latency) / Avg. Cmpd. @ 20 min (hindpaw withdrawal latency) / Avg. Cmpd @ 30 min (hindpaw withdrawal latency) / Avg. Cap. @ 20 min (hindpaw withdrawal latency) / Avg. Cap. @ 25 min (hindpaw withdrawal latency) / Avg. Cap. @ 30 min (hindpaw withdrawal latency) / Avg. All Capsaicin (hindpaw withdrawal latency) / Avg. All Baselines (hindpaw withdrawal latency): n=5; for Avg. Cmpd. @ 20 min (hindpaw withdrawal latency): 20 min after compound on capsaicin-treated hindpaw; for Avg. Cmpd @ 30 min (hindpaw withdrawal latency): 30 min after compound on capsaicin-treated hindpaw; for Avg. Cap. @ 20 min (hindpaw withdrawal latency) / Avg. Cap. @ 25 min (hindpaw withdrawal latency) / Avg. Cap. @ 30 min (hindpaw withdrawal latency) / Avg. All Capsaicin (hindpaw withdrawal latency) / Avg. All Baselines (hindpaw withdrawal latency): Table 7; for Avg. Cap. @ 20 min (hindpaw withdrawal latency): 20 min post-capsaicin; for Avg. Cap. @ 20 min (hindpaw withdrawal latency) / Avg. Cap. @ 25 min (hindpaw withdrawal latency) / Avg. Cap. @ 30 min (hindpaw withdrawal latency) / Avg. All Capsaicin (hindpaw withdrawal latency): before compound; for Avg. Cap. @ 25 min (hindpaw withdrawal latency): 25 min post-capsaicin; for Avg. Cap. @ 30 min (hindpaw withdrawal latency): 30 min post-capsaicin; for Avg. All Capsaicin (hindpaw withdrawal latency): all post-capsaicin times; for Avg. All Baselines (hindpaw withdrawal latency): before any treatment. Type of assay: in vivo, Sprague-Dawley rats. The procedure: A rat hindpaw assay was used to determine the therapeutic effectiveness of various extracts/compounds as analgesics in the present invention.
Sprague-Dawley rats (225-250 g, male) were anesthetized with urethane and placed on their sides on a disposable Chux pad. Both hindpaws for each rat were blackened with India ink which was allowed to dry for 10 minutes. An ELH projector lamp calibrated to a standard mW/cm^2 was used as a pain stimulus and was condensed into an area of 5×15 mm on each hindpaw and placed perpendicular to, and 72 mm from, each hindpaw.
Multiple baseline hindpaw withdrawal latency times were recorded (in seconds) for each medial and each lateral surface of each hindpaw. Subsequently, 100 μl of 1 μmolar capsaicin was applied with a pipette to cover one hindpaw of each animal and allowed to dry for 10 minutes, rendering the capsaicin-treated hindpaw hypersensitive to pain stimulus relative to the non-capsaicin treated hindpaw (and thereby decreasing the withdrawal latency period for the capsaicin-treated hindpaw relative to the non-treated hindpaw).
Both hindpaws were then re-blackened with India ink which was allowed to dry for 10 minutes, and hindpaw withdrawal latencies were recorded for both the capsaicin-treated and untreated hindpaws on both the medial and lateral aspects of both hindpaws at 20, 25 and 30 minutes. […] By contrast, only minor drops in the withdrawal latency periods of the untreated hindpaws was seen, and the effect that was observed is believed to be due to the central mechanism effect of capsaicin-treatment on the other hindpaw.
To determine the analgesic properties of each fraction, 100 μl of each fraction were applied to the capsaicin-treated hindpaw by pipette and permitted to dry (the untreated hindpaw was not treated with the fraction). Hindpaw withdrawal latencies were then recorded at 5, 20 and 30 minutes for both the capsaicin/fraction-treated hindpaw and the untreated hindpaw. An increase in the hindpaw withdrawal time was indicative of an analgesic effect by the applied fraction.

Assay [2] has as its system carrageenan-induced inflammation in air pouch. Briefly: Inflammation Bioassay: mouse air pouch assay (carrageenan), white blood cells in exudates. Type of assay: in vivo, mice. The procedure:
A mouse air pouch assay was used to determine the therapeutic effectiveness of various extracts/compounds as anti-inflammatory agents in the present invention.
To induce air pouches, 10-15 week old mice were injected subcutaneously on the back with 3 ml of air.
On day 2, the pouches were reinflated with 1.5 m. of air.
On day 6, inflammation was induced by injecting 1 ml of a suspension of carrageenan (2% weight/volume in calcium-free and magnesium-free phosphate buffered saline (PBS) solution) into the air pouch.
100 μL of solution including test compounds were injected with the carrageenan (additional 100 μL of PBS were injected into the controls).
After 4 hours, the mice were sacrificed by including CO2 narcosis, the pouches were flushed with 2 ml of PBS, and exudates were harvested.
Exudates were diluted 1:1 with 0.015% methylene blue in PBS.
White blood cells were counted in a standard hemocytometer chamber (American Optical, Buffalo, N.Y.).

[3] abbreviates: individual mice, 100 μL test solution injected with carrageenan, 4 hours.

The structures appear in SMILES notation. “And” between values parts separate entries of the source, which are not always exact repeats. Equal values may be shown once.

As to `C=C[C@](C)(CC/C=C(\C)CC/C=C(\C)CC(O)/C=C(\C)C(=O)O)O[C@@H]1OC(CO)[C@@H](O)C(O)C1O` (relative stereo) [Compound 498, 14-(beta-D-glucopyranosyloxy)-4-hydroxy-2,6,10,14-tetramethyl-2,6,10,15-hexadecatetraenoic acid [4R-(2E,4R*,6E,10E,14S*)]], in assay [1], the “Avg. Cmpd. @ 5 min (hindpaw withdrawal latency)” value worked out at 13.6 s, the “Avg. Cmpd. @ 20 min (hindpaw withdrawal latency)” value was 9.4 s, the “Avg. Cmpd @ 30 min (hindpaw withdrawal latency)” value amounted to 8.1 s and the “Avg. Cap. @ 20 min (hindpaw withdrawal latency)” value was 7.4 s. Also, in assay [1], the “Avg. Cap. @ 25 min (hindpaw withdrawal latency)” value worked out at 7.956 s, the “Avg. Cap. @ 30 min (hindpaw withdrawal latency)” value worked out at 5.4 s, the “Avg. All Capsaicin (hindpaw withdrawal latency)” value is 6.9 s and the “Avg. All Baselines (hindpaw withdrawal latency)” value is 10.77 s. In addition, the “analgesic activity (in words)” value in assay [1] (Analgesic Bioassay (Example 1)) is on record as “strong analgesic effect”.

With `C=C[C@](C)(CC/C=C(\C)CC/C=C(\C)CC(O)/C=C(\C)C(=O)O)O[C@@H]1OC(CO)[C@@H](O)C(O)C1O[C@@H]1OC(CO)[C@@H](O)C(O)C1O` (stereo partly drawn) [Compound 660, capsianoside I], in assay [1], the “Avg. Cmpd. @ 5 min (hindpaw withdrawal latency)” value is 10.5 s, the “Avg. Cmpd. @ 20 min (hindpaw withdrawal latency)” value turned out to be 9.6 s, the “Avg. Cmpd @ 30 min (hindpaw withdrawal latency)” value is 6.5 s and the “Avg. Cap. @ 20 min (hindpaw withdrawal latency)” value turned out to be 9.5 s. Also, in assay [1], the “Avg. Cap. @ 25 min (hindpaw withdrawal latency)” value amounted to 6.4 s, the “Avg. Cap. @ 30 min (hindpaw withdrawal latency)” value was determined as 5.9 s, the “Avg. All Capsaicin (hindpaw withdrawal latency)” value is 7.3 s and the “Avg. All Baselines (hindpaw withdrawal latency)” value is 9.5 s. Moreover, the “Average Cells (10^6/ml) (white blood cells in exudate)” value in assay [2] (average of five mice, control mice (PBS) 2.67) is listed as 1.54 10^6/ml. Besides, in assay [2] (setting [3]), the “Cells (10^6/ml) (white blood cells in exudate)” value was 1.30 10^6/ml and 2.49 10^6/ml (2×) and 0.32 10^6/ml and 1.09 10^6/ml; the “Cells/ml (white blood cells in exudate)” value was 1.30E+06 Cells/ml and 2.49E+06 Cells/ml (2×) and 3.23E+05 Cells/ml and 1.09E+06 Cells/ml. In addition, the “anti-inflammatory effects compared with methotrexate and dexamethasone” value in assay [2] (mouse air pouch) is “comparable to 0.5-1.0 mg/kg/week of chronic methotrexate, or 1.5 mg/kg acute dose of dexamethasone”.
